Results from patent US20260347373A1, “HETEROCYCLIC COMPOUNDS, COMPOSITIONS THEREOF, AND METHODS OF TREATMENT THEREWITH” (BeOne Medicines I GmbH, priority 2023, published 2026).
pIC50: −log10 of the molar value.

Legend:
[1] = target: WT KRAS (Homo sapiens, UniProt P01116); test: KRAS WT Probe Displacement Assay (TR-FRET, GDP-loaded); type: binding; conditions: KRAS WT, read-out: KRAS^WT Probe Displacement Assay IC50
Excerpt: (§1) The synthetic routes of probe 1 and 2, which have been disclosed in PCT/CN2022/070676, are hereby incorporated herein.

[2] = target: KRAS G12D (Homo sapiens, UniProt P01116, G12D); test: KRAS G12D Probe Displacement Assay (TR-FRET, GDP-loaded); type: binding; conditions: KRAS G12D, read-out: KRAS^G12D Probe Displacement Assay IC50
Sequence of KRAS G12D (P01116 1-188 isoform P01116-2 G12D): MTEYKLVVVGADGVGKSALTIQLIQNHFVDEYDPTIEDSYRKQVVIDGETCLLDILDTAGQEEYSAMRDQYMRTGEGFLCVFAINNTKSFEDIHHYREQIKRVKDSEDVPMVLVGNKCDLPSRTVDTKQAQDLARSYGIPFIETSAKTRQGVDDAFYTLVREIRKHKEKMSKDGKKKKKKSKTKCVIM
Excerpt: as §1

Sequence of WT KRAS (P01116 1-188 isoform P01116-2): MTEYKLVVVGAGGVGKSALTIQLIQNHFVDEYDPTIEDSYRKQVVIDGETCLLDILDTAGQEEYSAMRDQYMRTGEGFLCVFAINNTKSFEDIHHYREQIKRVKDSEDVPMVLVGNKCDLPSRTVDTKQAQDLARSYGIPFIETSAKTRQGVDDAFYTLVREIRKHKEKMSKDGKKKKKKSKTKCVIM

Structure (SMILES)	pIC50 [1]	pIC50 [2]
Cc1cc(N)cc(-c2nc3c4c(nc(OC[C@@]56C[C@H](F)CN5C[C@H](F)C6)nc4c2F)N2C[C@H]4CC[C@H](N4)[C@H]2CCO3)c1C(F)(F)F [Example 213, 3-((6aR,7S,10R)-13-(((2R,6S,7as)-2,6-difluorotetrahydro-1H-pyrrolizin-7a(5H)-yl)methoxy)-1-fluoro-5,6,6a,7,8,9,10,11-octahydro-4-oxa-3,11a,12,14,15-pentaaza-7,10-methanocyclohepta[4,5]cycloocta[1,2,3-de]naphthalen-2-yl)-5-methyl-4-(trifluoromethyl)aniline]	6.00 to 8.52	8.52 to 9.52
CO[C@H]1CN2C[C@H](F)C[C@]2(COc2nc3c4c(nc(-c5cc(N)cc(C)c5C(F)(F)F)c(F)c4n2)OCC[C@@H]2[C@@H]4CC[C@H](CN32)N4)C1 [Example 214, 3-((6aR,7S,10R)-1-fluoro-13-(((2R,6R,7aS)-2-fluoro-6-methoxytetrahydro-1H-pyrrolizin-7a(5H)-yl)methoxy)-5,6,6a,7,8,9,10,11-octahydro-4-oxa-3,11a,12,14,15-pentaaza-7,10-methanocyclohepta[4,5]cycloocta[1,2,3-de]naphthalen-2-yl)-5-methyl-4-(trifluoromethyl)aniline]	6.00 to 8.52	> 9.52
CO[C@H]1CN2C[C@H](F)C[C@]2(COc2nc3c4c(nc(-c5cc(N)cc(Cl)c5C(F)(F)F)c(F)c4n2)OCC[C@@H]2[C@@H]4CC[C@H](CN32)N4)C1 [Example 215, 3-chloro-5-((6aR,7S,10R)-1-fluoro-13-(((2R,6R,7aS)-2-fluoro-6-methoxytetrahydro-1H-pyrrolizin-7a(5H)-yl)methoxy)-5,6,6a,7,8,9,10,11-octahydro-4-oxa-3,11a,12,14,15-pentaaza-7,10-methanocyclohepta[4,5]cycloocta[1,2,3-de]naphthalen-2-yl)-4-(trifluoromethyl)aniline]	6.00 to 8.52	> 9.52
CO[C@@H]1CN2C[C@H](F)C[C@]2(COc2nc3c4c(nc(-c5cc(N)cc(C)c5C(F)(F)F)c(F)c4n2)OCC[C@@H]2[C@@H]4CC[C@H](CN32)N4)C1 [Example 216, 3-((6aR,7S,10R)-1-fluoro-13-(((2R,6S,7aS)-2-fluoro-6-methoxytetrahydro-1H-pyrrolizin-7a(5H)-yl)methoxy)-5,6,6a,7,8,9,10,11-octahydro-4-oxa-3,11a,12,14,15-pentaaza-7,10-methanocyclohepta[4,5]cycloocta[1,2,3-de]naphthalen-2-yl)-5-methyl-4-(trifluoromethyl)aniline]	6.00 to 8.52	> 9.52
CO[C@@H]1CN2C[C@H](F)C[C@]2(COc2nc3c4c(nc(-c5cc(N)cc(Cl)c5C(F)(F)F)c(F)c4n2)OCC[C@@H]2[C@@H]4CC[C@H](CN32)N4)C1 [Example 217, 3-chloro-5-((6aR,7S,10R)-1-fluoro-13-(((2R,6S,7aS)-2-fluoro-6-methoxytetahydro-1H-pyrrolizin-7a(5H)-yl)methoxy)-5,6,6a,7,8,9,10,11-octahydro-4-oxa-3,11a,12,14,15-pentaaza-7,10-methanocyclohepta[4,5]cycloocta[1,2,3-de]naphthalen-2-yl)-4-(trifluoromethyl)aniline]	6.00 to 8.52	> 9.52
[2H]C([2H])([2H])N1CC[C@H](OC)[C@H]1[C@H](C)Oc1nc2c3c(nc(-c4cc(N)cc(Cl)c4C(F)(F)F)c(F)c3n1)OCC[C@@H]1[C@@H]3CC[C@H](CN21)N3 [Example 218, 3-chloro-5-((6aR,7S,10R)-1-fluoro-13-((S)-1-((2R,3S)-3-methoxy-1-(methyl-d3)pyrrolidin-2-yl)ethoxy)-5,6,6a,7,8,9,10,11-octahydro-4-oxa-3,11a,12,14,15-pentaaza-7,10-methanocyclohepta[4,5]cycloocta[1,2,3-de]naphthalen-2-yl)-4-(trifluoromethyl)aniline]	8.52 to 9.52	> 9.52
[2H]C([2H])([2H])N1C[C@H](OC)C[C@H]1[C@H](C)Oc1nc2c3c(nc(-c4cc(N)cc(C)c4C(F)(F)F)c(F)c3n1)OCC[C@@H]1[C@@H]3CC[C@H](CN21)N3 [Example 219, 3-((6aR,7S,10R)-1-fluoro-13-((S)-1-((2S,4R)-4-methoxy-1-(methyl-d3)pyrrolidin-2-yl)ethoxy)-5,6,6a,7,8,9,10,11-octahydro-4-oxa-3,11a,12,14,15-pentaaza-7,10-methanocyclohepta[4,5]cycloocta[1,2,3-de]naphthalen-2-yl)-5-methyl-4-(trifluoromethyl)aniline]	6.00 to 8.52	> 9.52
[2H]C([2H])([2H])N1C[C@H](OC)C[C@H]1[C@H](C)Oc1nc2c3c(nc(-c4cc(N)cc(Cl)c4C(F)(F)F)c(F)c3n1)OCC[C@@H]1[C@@H]3CC[C@H](CN21)N3 [Example 220, 3-chloro-5-((6aR,7S,10R)-1-fluoro-13-((S)-1-((2S,4R)-4-methoxy-1-(methyl-d3)pyrrolidin-2-yl)ethoxy)-5,6,6a,7,8,9,10,11-octahydro-4-oxa-3,11a,12,14,15-pentaaza-7,10-methanocyclohepta[4,5]cycloocta[1,2,3-de]naphthalen-2-yl)-4-(trifluoromethyl)aniline]	6.00 to 8.52	> 9.52
[2H]C([2H])([2H])N1C[C@H](F)C[C@H]1[C@H](C)Oc1nc2c3c(nc(-c4cc(N)cc(C)c4C(F)(F)F)c(F)c3n1)OCC[C@@H]1[C@@H]3CC[C@H](CN21)N3 [Example 221, 3-((6aR,7S,10R)-1-fluoro-13-((S)-1-((2S,4R)-4-fluoro-1-(methyl-d3)pyrrolidin-2-yl)ethoxy)-5,6,6a,7,8,9,10,11-octahydro-4-oxa-3,11a,12,14,15-pentaaza-7,10-methanocyclohepta[4,5]cycloocta[1,2,3-de]naphthalen-2-yl)-5-methyl-4-(trifluoromethyl)aniline]	6.00 to 8.52	> 9.52
CCN1C[C@H](F)C[C@H]1[C@H](C)Oc1nc2c3c(nc(-c4cc(N)cc(C)c4C(F)(F)F)c(F)c3n1)OCC[C@@H]1[C@@H]3CC[C@H](CN21)N3 [Example 222, 3-((6aR,7S,10R)-13-((S)-1-((2S,4R)-1-ethyl-4-fluoropyrrolidin-2-yl)ethoxy)-1-fluoro-5,6,6a,7,8,9,10,11-octahydro-4-oxa-3,11a,12,14,15-pentaaza-7,10-methanocyclohepta[4,5]cycloocta[1,2,3-de]naphthalen-2-yl)-5-methyl-4-(trifluoromethyl)aniline]	6.00 to 8.52	> 9.52
Cc1cc(N)cc(-c2nc3c4c(nc(O[C@@H](C)[C@@H]5[C@H]6C[C@H]6CN5C)nc4c2F)N2C[C@H]4CC[C@H](N4)[C@H]2CCO3)c1C(F)(F)F [Example 223, 3-((6aR,7S,10R)-1-fluoro-13-((S)-1-((1S,2S,5R)-3-methyl-3-azabicyclo[3.1.0]hexan-2-yl)ethoxy)-5,6,6a,7,8,9,10,11-octahydro-4-oxa-3,11a,12,14,15-pentaaza-7,10-methanocyclohepta[4,5]cycloocta[1,2,3-de]naphthalen-2-yl)-5-methyl-4-(trifluoromethyl)aniline]	6.00 to 8.52	> 9.52
Cc1cc(N)cc(-c2nc3c4c(nc(O[C@@H](C)[C@@H]5CCCN5C5CCOCC5)nc4c2F)N2C[C@H]4CC[C@H](N4)[C@H]2CCO3)c1C(F)(F)F [Example 226, 3-((6aR,7S,10R)-1-fluoro-13-((S)-1-((S)-1-(tetrahydro-2H-pyran-4-yl)pyrrolidin-2-yl)ethoxy)-5,6,6a,7,8,9,10,11-octahydro-4-oxa-3,11a,12,14,15-pentaaza-7,10-methanocyclohepta[4,5]cycloocta[1,2,3-de]naphthalen-2-yl)-5-methyl-4-(trifluoromethyl)aniline]	6.00 to 8.52	> 9.52
Cc1cc(N)cc(-c2nc3c4c(nc(O[C@@H](C)[C@@H]5CCCN5C5COC5)nc4c2F)N2C[C@H]4CC[C@H](N4)[C@H]2CCO3)c1C(F)(F)F [Example 227, 3-((6aR,7S,10R)-1-fluoro-13-((S)-1-((S)-1-(oxetan-3-yl)pyrrolidin-2-yl)ethoxy)-5,6,6a,7,8,9,10,11-octahydro-4-oxa-3,11a,12,14,15-pentaaza-7,10-methanocyclohepta[4,5]cycloocta[1,2,3-de]naphthalen-2-yl)-5-methyl-4-(trifluoromethyl)aniline]	6.00 to 8.52	> 9.52
Cc1cc(N)cc(-c2nc3c4c(nc(O[C@@H](C)[C@@H]5CCCN5CC5CC5)nc4c2F)N2C[C@H]4CC[C@H](N4)[C@H]2CCO3)c1C(F)(F)F [Example 230, 3-((6aR,7S,10R)-13-((S)-1-((S)-1-(cyclopropylmethyl)pyrrolidin-2-yl)ethoxy)-1-fluoro-5,6,6a,7,8,9,10,11-octahydro-4-oxa-3,11a,12,14,15-pentaaza-7,10-methanocyclohepta[4,5]cycloocta[1,2,3-de]naphthalen-2-yl)-5-methyl-4-(trifluoromethyl)aniline]	6.00 to 8.52	> 9.52
C=CCN1CCC[C@H]1[C@H](C)Oc1nc2c3c(nc(-c4cc(N)cc(C)c4C(F)(F)F)c(F)c3n1)OCC[C@@H]1[C@@H]3CC[C@H](CN21)N3 [Example 231, 3-((6aR,7S,10R)-13-((S)-1-((S)-1-allylpyrrolidin-2-yl)ethoxy)-1-fluoro-5,6,6a,7,8,9,10,11-octahydro-4-oxa-3,11a,12,14,15-pentaaza-7,10-methanocyclohepta[4,5]cycloocta[1,2,3-de]naphthalen-2-yl)-5-methyl-4-(trifluoromethyl)aniline]	6.00 to 8.52	> 9.52
Cc1cc(N)cc(-c2nc3c4c(nc(O[C@@H](C)[C@@H]5CCCN5CCF)nc4c2F)N2C[C@H]4CC[C@H](N4)[C@H]2CCO3)c1C(F)(F)F [Example 250, 3-((6aR,7S,10R)-1-fluoro-13-((S)-1-((S)-1-(2-fluoroethyl)pyrrolidin-2-yl)ethoxy)-5,6,6a,7,8,9,10,11-octahydro-4-oxa-3,11a,12,14,15-pentaaza-7,10-methanocyclohepta[4,5]cycloocta[1,2,3-de]naphthalen-2-yl)-5-methyl-4-(trifluoromethyl)aniline]	6.00 to 8.52	> 9.52
